Data taken from patent publication US5968910A, “Compositions containing two or three inhibitors of different HIV reverse transcriptases” (priority 1994, dated 1999).
In brackets after ≈: the same amount, converted by molar mass. Where two headings read alike, the source gives them in different places.

Assays:
HIV-1/V(0.5) 103-Asn = assay: Sensitivity of mutant HIV-1 strain in CEM cell cultures; assay type: cell-based; settings: Human immunodeficiency virus 1, CCRF-CEM; Table 5; read-out: EC50
In short: (§1)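 Syncytium formation read out after 4 days at 37° C. Cultures: CEM cells, 250,000/ml, infected at 100 50% cell culture infective doses/ml and added to compound dilutions.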

HIV-1/B 101Glu = assay: as above; assay type: cell-based; settings: Human immunodeficiency virus 1, CCRF-CEM; Table 5; read-out: EC50
In short: as §1

[1] = system: HIV-1/TIBO R82913 (103-Asn); assay: as above; assay type: cell-based; settings: Human immunodeficiency virus 1, CCRF-CEM; CEM cells, Table 1; read-out: 50% Effective Concentration
In short: as §1

HIV-1/I(0.1) 103-Asn = assay: as above; assay type: cell-based; settings: Human immunodeficiency virus 1, CCRF-CEM; Table 5; read-out: EC50
In short: as §1

HIV-1/III(0.1) 103-Asn = assay: as above; assay type: cell-based; settings: Human immunodeficiency virus 1, CCRF-CEM; Table 5; read-out: EC50
In short: as §1

[2] = system: HIV-1/V(0.1) 101-Ile + 141-Glu; assay: as above; assay type: cell-based; settings: Human immunodeficiency virus 1, CCRF-CEM; Table 5; read-out: EC50
In short: as §1

HIV-1/II(0.1) 100-Ile = assay: as above; assay type: cell-based; settings: Human immunodeficiency virus 1, CCRF-CEM; Table 5; read-out: EC50
In short: as §1

[3] = system: HIV-1/TIBO R82150 (100-Ile); assay: as above; assay type: cell-based; settings: Human immunodeficiency virus 1, CCRF-CEM; CEM cells, Table 1; read-out: 50% Effective Concentration
In short: as §1

HIV-1/IV(0.1) 103-Thr = assay: as above; assay type: cell-based; settings: Human immunodeficiency virus 1, CCRF-CEM; Table 5; read-out: EC50
In short: as §1

HIV-1/Pyr (181-Cys) = assay: as above; assay type: cell-based; settings: Human immunodeficiency virus 1, CCRF-CEM; CEM cells, Table 1; read-out: 50% Effective Concentration
In short: as §1

HIV-1/Nev (106-Ala) = assay: as above; assay type: cell-based; settings: Human immunodeficiency virus 1, CCRF-CEM; CEM cells, Table 1; read-out: 50% Effective Concentration
In short: as §1

[4] = system: HIV-1/TSAO-m^3 T (138-Lys); assay: as above; assay type: cell-based; settings: Human immunodeficiency virus 1, CCRF-CEM; CEM cells, Table 1; read-out: 50% Effective Concentration
In short: as §1

HIV-1 RT (WT) = HIV-1 RT (WT) (Human immunodeficiency virus type 1 group M subtype B, UniProt P03366); assay: biochemical
In short: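 Inhibition read as reduced incorporation of [2,8-³H]dGTP (2.95 μM) into acid-precipitable product on a poly(C).oligo(dG) template/primer (0.1 mM). Recombinant RT, test compounds in 5-fold dilutions; 30 min, 37° C, pH 7.8 Tris buffer with 5 mM Mg2+, 150 mM KCl.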

HIV-1(IIIB) = assay: Knock-out concentrations: breakthrough of HIV-1(IIIB)-induced cytopathicity in CEM cell cultures; assay type: cell-based; settings: for activity at 0.1 µg/mL / activity at 0.5 µg/mL / activity at 2.5 µg/mL: Human immunodeficiency virus 1, IIIB, CCRF-CEM, read-out: HIV-1-induced cytopathicity in cell culture; for activity at 0.1 µg/mL: 0.1 μg/ml; for activity at 0.5 µg/mL: 0.5 μg/ml; for activity at 2.5 µg/mL: 2.5 μg/ml
In short: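 CEM cells in RPMI 1640 with 10% FBS infected with HIV-1(IIIB) at ~1000× CCID50, subcultured every 3–4 days into fresh uninfected cells with drug held constant for 10 subcultivations (35 days), then ≥5 drug-free passages. Breakthrough scored by syncytium formation. Combinations used the two lowest single-drug starting concentrations.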

HIV-1(IIIB) (WT) = assay: microbe, parasite or virus in culture; assay type: cell-based; settings: Human immunodeficiency virus 1, IIIB, CCRF-CEM
In short: as §1

[5] = 936 h, day 39 post infection, compound absent from day 35
[6] = 1008 h, day 42 post infection, compound absent from day 35
[7] = 1104 h, day 46 post infection, compound absent from day 35
[8] = 1176 h, day 49 post infection, compound absent from day 35
[9] = 1272 h, day 53 post infection, compound absent from day 35

Cc1occc1C(=S)Nc1ccc(Cl)c(C=NOC(C)(C)C)c1 [Compound I]
EC50 (HIV-1/V(0.5) 103-Asn): 0.73 µg/mL (≈ 2.08 µM)
EC50 (HIV-1/B 101Glu): ≥ 1 µg/mL
EC50 [1]: ≥ 1 µg/mL
EC50 (HIV-1/I(0.1) 103-Asn): 0.23 µg/mL (≈ 0.656 µM)
EC50 (HIV-1/III(0.1) 103-Asn): 0.3 µg/mL (≈ 0.855 µM)
EC50 [2]: 0.12 µg/mL (≈ 0.342 µM)
EC50 (HIV-1/II(0.1) 100-Ile): 1.25 µg/mL (≈ 3.56 µM)
EC50 [3]: 0.085 µg/mL (≈ 0.242 µM)
EC50 (HIV-1/IV(0.1) 103-Thr): 0.6 µg/mL (≈ 1.71 µM)
EC50 (HIV-1/Pyr (181-Cys)): 0.075 µg/mL (≈ 0.214 µM)
EC50 (HIV-1/Nev (106-Ala)): 0.13 µg/mL (≈ 0.371 µM)
EC50 [4]: 0.075 µg/mL (≈ 0.214 µM)
IC50 (HIV-1 RT (WT); range stated for the compounds together, poly(C).oligo(dG), 2.95 μM [2,8-3H]dGTP, read-out: IC50 on recombinant HIV-1 RT): 51.3 to 219 nM
IC50 (HIV-1 RT (WT); substrate [2,8-3H]dGTP 2.95 μM, template poly(rC)oligo(dG), read-out: IC50, anti-HIV-1 RT (WT) activity (converted)): 202 nM
prevention of virus breakthrough, fold more efficient than BHAP (HIV-1(IIIB)): at least 5 fold
prevention of virus breakthrough, fold more efficient than nevirapine (HIV-1(IIIB)): ≥ 25 fold
activity at 0.1 µg/mL (HIV-1(IIIB); 96 h, day 4 post infection): 0%
activity at 0.5 µg/mL (HIV-1(IIIB); 96 h, day 4 post infection): 0%
activity at 2.5 µg/mL (HIV-1(IIIB); 96 h, day 4 post infection): 0%
activity at 0.1 µg/mL (HIV-1(IIIB); 192 h, day 8 post infection): 0%
activity at 0.5 µg/mL (HIV-1(IIIB); 192 h, day 8 post infection): 0%
activity at 2.5 µg/mL (HIV-1(IIIB); 192 h, day 8 post infection): 0%
activity at 0.1 µg/mL (HIV-1(IIIB); 264 h, day 11 post infection): 6.2%
activity at 0.5 µg/mL (HIV-1(IIIB); 264 h, day 11 post infection): 0%
activity at 2.5 µg/mL (HIV-1(IIIB); 264 h, day 11 post infection): 0%
activity at 0.1 µg/mL (HIV-1(IIIB); 336 h, day 14 post infection): 25%
activity at 0.5 µg/mL (HIV-1(IIIB); 336 h, day 14 post infection): 0%
activity at 2.5 µg/mL (HIV-1(IIIB); 336 h, day 14 post infection): 0%
activity at 0.1 µg/mL (HIV-1(IIIB); 408 h, day 17 post infection): 100%
activity at 0.5 µg/mL (HIV-1(IIIB); 408 h, day 17 post infection): 0%
activity at 2.5 µg/mL (HIV-1(IIIB); 408 h, day 17 post infection): 0%
activity at 0.1 µg/mL (HIV-1(IIIB); 504 h, day 21 post infection): 100%
activity at 0.5 µg/mL (HIV-1(IIIB); 504 h, day 21 post infection): 0%
activity at 2.5 µg/mL (HIV-1(IIIB); 504 h, day 21 post infection): 0%
activity at 0.1 µg/mL (HIV-1(IIIB); 600 h, day 25 post infection): 100%
activity at 0.5 µg/mL (HIV-1(IIIB); 600 h, day 25 post infection): 0%
activity at 2.5 µg/mL (HIV-1(IIIB); 600 h, day 25 post infection): 0%
activity at 0.1 µg/mL (HIV-1(IIIB); 672 h, day 28 post infection): 100%
activity at 0.5 µg/mL (HIV-1(IIIB); 672 h, day 28 post infection): 0%
activity at 2.5 µg/mL (HIV-1(IIIB); 672 h, day 28 post infection): 0%
activity at 0.1 µg/mL (HIV-1(IIIB); 768 h, day 32 post infection): 100%
activity at 0.5 µg/mL (HIV-1(IIIB); 768 h, day 32 post infection): 0%
activity at 2.5 µg/mL (HIV-1(IIIB); 768 h, day 32 post infection): 0%
activity at 0.1 µg/mL (HIV-1(IIIB); 840 h, day 35 post infection): 100%
activity at 0.5 µg/mL (HIV-1(IIIB); 840 h, day 35 post infection): 0%
activity at 2.5 µg/mL (HIV-1(IIIB); 840 h, day 35 post infection): 0%
activity at 0.1 µg/mL (HIV-1(IIIB); [5]): 100%
activity at 0.5 µg/mL (HIV-1(IIIB); [5]): 0%
activity at 2.5 µg/mL (HIV-1(IIIB); [5]): 0%
activity at 0.1 µg/mL (HIV-1(IIIB); [6]): 100%
activity at 0.5 µg/mL (HIV-1(IIIB); [6]): 0%
activity at 2.5 µg/mL (HIV-1(IIIB); [6]): 0%
activity at 0.1 µg/mL (HIV-1(IIIB); [7]): 100%
activity at 0.5 µg/mL (HIV-1(IIIB); [7]): 0%
activity at 2.5 µg/mL (HIV-1(IIIB); [7]): 0%
activity at 0.1 µg/mL (HIV-1(IIIB); [8]): 100%
activity at 0.5 µg/mL (HIV-1(IIIB); [8]): 0%
activity at 2.5 µg/mL (HIV-1(IIIB); [8]): 0%
activity at 0.1 µg/mL (HIV-1(IIIB); [9]): 100%
activity at 0.5 µg/mL (HIV-1(IIIB); [9]): 0%
activity at 2.5 µg/mL (HIV-1(IIIB); [9]): 0%
concentration at which virus emerged (virus breakthrough) (HIV-1(IIIB); tested at 0.1, 0.5 and 2.5 μg/ml, 35 days): 0.1 µg/mL
EC50 (HIV-1(IIIB) (WT); CEM cells, Table 1, read-out: 50% Effective Concentration): 0.05 µg/mL (≈ 0.143 µM)
EC50 (HIV-1(IIIB) (WT); HIV-1 (III8), Table 5, read-out: EC50): 0.01 µg/mL (≈ 0.0285 µM)
IC50 (HIV-1(IIIB) (WT); range stated for Compounds I-V together, read-out: 50% inhibitory concentration, HIV-1(IIIB) replication in CEM cells): 0.004 to 0.05 µg/mL (≈ 0.0114 to 0.143 µM)
